Measured values taken from patent publication US7763641B2, “Broadspectrum heterocyclic substituted phenyl containing sulfonamide HIV protease inhibitors” (Tibotec Pharmaceuticals Ltd., priority 2001, dated 2010).
Read-outs that look alike come from different tables or passages of the source.

Columns and labels:
HIV strain F = test: Cellular anti-HIV assay, clinically isolated mutant strain F; type: cell-based; details: FR=EC50 (mutant strain)/EC50 (HIV-1 strain LAI)
Procedure: (§1) HIV- or mock-infected MT4 cells were incubated for five days in the presence of various concentrations of the inhibitor. […] Cell viability is measured by measuring the concentration of MTT, a yellow, water soluble tetrazolium dye that is converted to a purple, water insoluble formazan in the mitochondria of living cells only. Upon solubilization of the resulting formazan crystals with isopropanol, the absorbance of the solution is monitored at 540 nm. The values correlate directly to the number of living cells remaining in the culture at the completion of the five day incubation. The inhibitory activity of the compound was monitored on the virus-infected cells and was expressed as EC50 and EC90. These values represent the amount of the compound required to protect 50% and 90%, respectively, of the cells from the cytopathogenic effect of the virus. […] The selectivity index (SI) (ratio CC50/EC50) is an indication of the selectivity of the anti-HIV activity of the inhibitor. Wherever results are reported as e.g. pEC50 or pCC50 values, the result is expressed as the negative logarithm of the result expressed as EC50 or CC50 respectively.
(§2) Because of the increasing emergence of drug resistant HIV strains, the present compounds were tested for their potency against clinically isolated HIV strains harboring several mutations (Table 7 and 8).
(§3) As a measure of the broad spectrum activity of the present compounds, the fold resistance (FR), defined as FR=EC50 (mutant strain)/EC50 (HIV-1 strain LAI), was determined.

HIV-1 strain LAI = test: Cellular anti-HIV assay (MTT), wild type strain; type: cell-based; details: for pEC50: MT4 cells, five days, MTT, HIV-1 strain LAI, Tables 1-6; for WT (pEC50 against wild type HIV-LAI strain): Table 8
Procedure: The compounds of the present invention were examined for anti-viral activity in a cellular assay. […] The cellular assay was performed according to the following procedure.

HIV strain E = test: Cellular anti-HIV assay, clinically isolated mutant strain E; type: cell-based; details: FR=EC50 (mutant strain)/EC50 (HIV-1 strain LAI)
Procedure: as §1, §2, §3

HIV strain D = test: Cellular anti-HIV assay, clinically isolated mutant strain D; type: cell-based; details: FR=EC50 (mutant strain)/EC50 (HIV-1 strain LAI)
Procedure: as §1, §2, §3

HIV strain A = test: Cellular anti-HIV assay, clinically isolated mutant strain A; type: cell-based; details: FR=EC50 (mutant strain)/EC50 (HIV-1 strain LAI)
Procedure: as §1, §2, §3

mock-infected MT4 cells = test: Toxicity on mock-infected cells (MTT)
Procedure: as §1, §3

HIV strain B = test: Cellular anti-HIV assay, clinically isolated mutant strain B; type: cell-based; details: FR=EC50 (mutant strain)/EC50 (HIV-1 strain LAI)
Procedure: as §1, §2, §3

HIV strain C = test: Cellular anti-HIV assay, clinically isolated mutant strain C; type: cell-based; details: FR=EC50 (mutant strain)/EC50 (HIV-1 strain LAI)
Procedure: as §1, §2, §3

[1] = pCC50 with mock transfected cells

| Compound | F (FR towards mutant F) (HIV strain F) | pEC50 (HIV-1 strain LAI) | WT (pEC50 against wild type HIV-LAI strain) (HIV-1 strain LAI) | E (FR towards mutant E) (HIV strain E) | D (FR towards mutant D) (HIV strain D) | A (FR value towards mutant A) (HIV strain A) | Tox (pCC50) (mock-infected MT4 cells) | B (FR towards mutant B) (HIV strain B) | C (FR towards mutant C) (HIV strain C) | Tox (pCC50) (mock-infected MT4 cells; [1]) |
| --- | --- | --- | --- | --- | --- | --- | --- | --- | --- | --- |
| CC(C)CN(CC(O)C(Cc1ccccc1)NC(=O)OC1COC2OCCC12)S(=O)(=O)c1ccc(-c2csc(N)n2)cc1 (stereo not shown) [Compound 2] | 91 | 8.5 | 8.5 | 8.9 | 9.3 | 26 | 4.07 | 10.0 | 3.0 | – |
| CC(=O)Nc1nc(-c2ccc(S(=O)(=O)N(CC(C)C)CC(O)C(Cc3ccccc3)NC(=O)OC3COC4OCCC34)cc2)cs1 (stereo not shown) [Compound 3] | 151 | 8.3 | 8.3 | 17 | 26 | 39 | – | 8.9 | 7.4 | 4.11 |
| CC(C)CN(CC(O)C(Cc1ccccc1)NC(=O)OC1COC2OCCC12)S(=O)(=O)c1ccc(-c2csc(NCCCN(C)C)n2)cc1 (stereo not shown) [Compound 6] | 79 | 7.5 | 7.5 | 6.6 | 3.8 | 6.2 | 4.69 | 4.7 | 1.2 | – |
| CC(=O)Nc1nc(-c2ccc(S(=O)(=O)N(CC(C)C)CC(O)C(Cc3ccccc3)NC(=O)OC3COC4OCCC34)cc2)c[nH]1 (stereo not shown) [Compound 32] | 7.2 | 7.7 | 7.7 | 0.95 | – | 1.3 | – | 1.0 | 0.33 | <4.0 |
| CC(C)CN(CC(O)C(Cc1ccccc1)NC(=O)OC1COC2OCCC12)S(=O)(=O)c1ccc(-c2c[nH]c(NC(=O)OC3COC4OCCC34)n2)cc1 (stereo not shown) [Compound 33] | 2.6 | 6.7 | 6.7 | 0.19 | – | 0.71 | – | 0.66 | 0.2 | <4.0 |
| Cc1nc(-c2ccc(S(=O)(=O)N(CC(C)C)CC(O)C(Cc3ccccc3)NC(=O)OC3COC4OCCC34)cc2)co1 (stereo not shown) [Compound 35] | 42 | 8.4 | 8.4 | 8.3 | 6.2 | 11 | <4.0 | 10.5 | 8.3 | – |
| CC(C)CN(C[C@@H](O)[C@H](Cc1ccccc1)NC(=O)O[C@H]1CO[C@H]2OCC[C@H]21)S(=O)(=O)c1ccc(-c2noc(-c3ccco3)n2)cc1 [Compound 38, [(1S,2R)-3-[N-[4-(5-(furan-2-yl)oxadiazol-3-yl)phenylsulfonyl]-N-(2-methylpropyl)amino]-2-hydroxy-1-(phenylmethyl)propyl]carbamic acid, [(3R,3aS,6aR)-hexahydrofuro[2,3-b]furan-3-yl]ester] | 44.7 | 8.4 | 8.4 | 9.5 | 14.8 | 30 | – | 23 | 6.8 | <4.49 |
| CCCc1nc(-c2ccc(S(=O)(=O)N(CC(C)C)CC(O)C(Cc3ccccc3)NC(=O)OC3COC4OCCC34)cc2)co1 (stereo not shown) [Compound 40] | 219 | 8.5 | 8.5 | 41 | 12.9 | 5.0 | <4.49 | – | 4.1 | – |
| COc1cccc(-c2nc(-c3ccc(S(=O)(=O)N(CC(C)C)CC(O)C(Cc4ccccc4)NC(=O)OC4COC5OCCC45)cc3)co2)c1 (stereo not shown) [Compound 44] | 77 | 8.0 | 8.0 | 13 | 15 | 39 | – | 14 | 8.1 | <4.49 |
| Cc1cc(-c2nc(-c3ccc(S(=O)(=O)N(CC(C)C)CC(O)C(Cc4ccccc4)NC(=O)OC4COC5OCCC45)cc3)co2)no1 (stereo not shown) [Compound 46] | – | 8.4 | 8.4 | 9.8 | 32 | 182 | <4.49 | 32 | 9.1 | – |
| CC(=O)OC(c1ccccc1)c1nc(-c2ccc(S(=O)(=O)N(CC(C)C)CC(O)C(Cc3ccccc3)NC(=O)OC3COC4OCCC34)cc2)co1 (stereo not shown) [Compound 48] | – | 8.3 | 8.3 | 6.9 | 17 | 89 | <4.0 | 25 | 5.8 | – |
| [(1S,2R)-2-hydroxy-3-[N-[4-(2-methylaminothiazol-4-yl)phenylsulfonyl]-N-(2-methylpropyl)amino]-1-(phenylmethyl)propyl]carbamic acid, [(3R,3aS,6aR)-hexahydrofuro[2,3-b]furan-3-yl]ester [Compound 1] | 42 | 8.5 | 8.5 | 5.0 | 7.9 | 5.4 | – | 2.1 | 1.2 | 4.19 |
